# Data: patent US20230146795A1, “ENHANCEMENT OF ANTI-TUMOR ACTIVITY OF SHP2 INHIBITOR PYRIMIDINONE IN COMBINATION WITH NOVEL CANCER MEDICINES IN CANCERS” (TAIHO PHARMACEUTICAL CO., LTD., priority 2020, published 2023)
# pIC50: −log10 of the molar value.
# Assays:
# SHP2 = target: T1, SHP2 (Homo sapiens, UniProt Q06124); assay: SHP2 biochemical assay (DiFMUP conversion); conditions: 10 pM SHP2, 0.25 μM pIRS1 peptide, 50 μM DiFMUP
# T1 sequence (Q06124 1-593): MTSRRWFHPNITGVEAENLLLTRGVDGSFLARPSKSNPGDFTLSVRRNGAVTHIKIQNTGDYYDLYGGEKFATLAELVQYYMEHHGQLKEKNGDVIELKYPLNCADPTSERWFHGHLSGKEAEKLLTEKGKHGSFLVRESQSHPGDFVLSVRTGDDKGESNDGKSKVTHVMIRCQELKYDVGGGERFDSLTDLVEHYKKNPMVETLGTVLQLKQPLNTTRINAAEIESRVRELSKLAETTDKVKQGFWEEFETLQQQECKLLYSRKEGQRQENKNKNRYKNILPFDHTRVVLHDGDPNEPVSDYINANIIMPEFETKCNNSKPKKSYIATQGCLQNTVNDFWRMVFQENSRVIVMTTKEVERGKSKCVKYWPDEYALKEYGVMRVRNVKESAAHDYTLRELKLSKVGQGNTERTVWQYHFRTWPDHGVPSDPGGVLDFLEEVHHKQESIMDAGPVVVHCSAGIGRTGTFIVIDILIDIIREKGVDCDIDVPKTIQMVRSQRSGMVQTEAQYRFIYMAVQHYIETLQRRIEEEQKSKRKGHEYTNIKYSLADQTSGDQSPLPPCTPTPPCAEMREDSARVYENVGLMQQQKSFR
# Method: (1) SHP2 Biochemical Assay SHP2 Activity was Monitored by Measuring the Conversion of the Surrogate Substrate 6,8-Difluoromethylumbelliferyl Phosphate (DiEMUP) to the Fluorescent Product, 6,8-Difluoromethylumbelliferone (DiFMU).
# SHP2 was pre-incubated with test compounds and the activating peptide pIRS1 (H2N-LN(pY) IDLDLV-(PEG) 8-LST(pY)ASINFQK-amide) for 30 min, prior to addition of the 6,8-difluoromethylumbelliferyl phosphate (DiEMUP), (Thermo Fisher D6567). Final assay concentrations were 10 pM SHP2, 0.25 μM pIRS1 peptide, 50 μM DiFMUP, 25 mM Bis-Tris propane, pH 7.0, 150 mM NaCl, 0.05% (v/v) Tween-20, 0.5 mM TCEP and 5% (v/v) DMSO. Rates of reaction were then measured over 30 min by monitoring fluorescence on a BMG Pherastar reader at excitation 360 nm/emission 450 nm. IC50 values were calculated in singlicate from the normalized dose-response plots using four parameter logistic curve fit. The Experiment for each compound was carried out in one time or multiple times, and the IC50 values were shown as a single value (for a compound measured in a single experiment) or an average value (for a compound measured in multiple experiments).
# [1] = system: 97 cell lines harboring driver mutations in KRAS; assay: In vitro cell line screening, 3D cultures (CellTiter-Glo 3D), KRAS panel; type: cell-based, human; conditions: sensitive = maximum inhibition greater than 50% relative to DMSO, max 3 μM Compound 1, 1 μM Compound 9, 120-hour incubation
# Method: The effect of Compound 1 in combination with an ERK inhibitor, Compound 9, on 97 cell lines harboring driver mutations in KRAS (G12A, G12C, G12F, G12R, G12S, G12V, G13C, G13D, A59G, Q61H, Q61K, Q61L or A146T) was assessed using the following technique. Cells from human cancer cells lines (from commercial sources such as ATCC or ECCAC) were grown as 3D cultures by seeding cells into round-bottom ultra-low attachment 96-well tissue culture plates (Corning) followed by centrifugation. Cells were allowed to recover for 16-24 hours prior to compound treatment. Compounds or dimethyl sulfoxide (DMSO) were added at various combinations of compound concentrations in a final DMSO concentration of up to 0.5% (v/v). Following a total of 120-hour incubation, CellTiter-Glo 3D Reagent(registered trademark) (Promega) was added. Plates were incubated for 10 minutes with gentle shaking at room temperature to lyse the cells, then incubated for further 40 minutes at room temperature to stabilize luminescence signal. After mixing, the mixture was transferred to a fresh plate and luminescence was determined on EnVision plate reader (Perkin Elmer).
# For both 3D and 2D assays, the combination was tested as matrix of various concentrations of Compound 1 and Compound 9. The maximum concentrations of Compound 1 and Compound 9 used were 3 μM and 1 μM, respectively. Signals were normalized to that of the average of the DMSO control wells. […] For each cell line, the maximum % inhibition values were obtained for Compound 1 alone, Compound 9 alone and the combination of both compounds. The degree of drug interaction (i.e. synergy, additivity or antagonism) was quantified for each cell line by the Bliss independence model using the Synergyfinder R package (Ref: He L. et al. (2018) Methods for High-throughput Drug Combination Screening and Synergy Scoring. In: von Stechow L. (eds) Cancer Systems Biology. Methods in Molecular Biology, vol 1711. Humana Press, New York, N.Y.). For each cell line, a single score metric, the sum of synergy and antagonism across screened drug concentrations (SUM_SYN_ANT) (Ref: Di Veroli G. Y. et al (2016) Bioinformatics 32(18):2866-2868), was calculated. Synergy was defined as a score of 21 or above.
smiles,measurement,setting,value
"Cn1nc2ccc(-c3c[nH]c4nc(N5[C@H]6CC[C@@H]5[C@H](N)C6)n(C)c(=O)c34)c(Cl)c2c1Cl [Compound 1, 2-((1R,2R,4S)-2-amino-7-azabicyclo[2.2.1]heptan-7-yl)-5-(3,4-dichloro-2-methyl-2H-indazol-5-yl)-3-methyl-3,7-dihydro-4H-pyrrolo[2,3-d]pyrimidin-4-one]",pIC50,SHP2,8.70
same,Number of cell lines sensitive,[1],38
same,Number of cell lines sensitive (% of total),[1],(39.2) %
